From patent publication US20210145802A1, “THERAPY FOR OPHTHALMOLOGICAL CONDITIONS” (WREN THERAPEUTICS LIMITED, priority 2018, published 2021)

Experiments:
GMC101 (Aβ worms) = conditions: GMC101, C. elegans, in vivo
Method: (§1) Briefly, Netoglitazone stocks (5 mM in 100% DMSO) were used at an appropriate concentration to seed 9-cm NGM plates. Plates were then placed in a laminar flow hood at room temperature (22° C.) for up to 4 hours to dry. C. elegans cultures were then transferred onto media seeded with compound as L4 stage or Day 3 for late treatments and incubated at 24° for the whole experiment. Experiments were carried out at different Netoglitazone concentrations ranging from 0.05 to 500 μM in 1% DMSO. As controls, plates seeded only with 1% DMSO were used.

control worms = conditions: C. elegans, in vivo
Method: as §1

[1] = target: A1340 (40-residue isoform of Aβ) (Homo sapiens, UniProt P05067); test: A1340 aggregation kinetics; conditions: 10 μM A1340; 1.25-fold excess
Chain of A1340 (40-residue isoform of Aβ) (P05067 672-711 limits assumed): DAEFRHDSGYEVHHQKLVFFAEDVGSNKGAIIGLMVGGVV

NL5901 (α-syn worms) = test: Automated motility assay, α-syn worms; assay type: in vivo, C. elegans; conditions: same concentration range; compared with effect in Aβ worms
Method: NL5901 (pkIs2386 [α-synuclein::YFP unc-119(+)]) (“α-syn worms”), in which α-synuclein fused to YFP relocates to inclusions, which are visible as early as day 2 after hatching and increase in number and size during the aging of the animals, up to late adulthood (day 17) (T. J. Van Ham et al., C. elegans model identifies genetic modifiers of α-synuclein inclusion formation during aging. PLoS Genetics. 4 (2008));
(§2) Briefly, Netoglitazone stocks (5 mM in 100% DMSO) were used at an appropriate concentration to seed 9-cm NGM plates. Plates were then placed in a laminar flow hood at room temperature (22° C.) for up to 4 hours to dry. […]
(§3) All C. elegans populations were cultured at 20° C. and developmentally synchronized from a 4 h egg-lay. At 64-72 h post-egg-lay (time zero), individuals were transferred to FUDR plates, and body movements were assessed over the times indicated. At different ages, the animals were washed off the plates with M9 buffer and spread over an OP-50 unseeded 9 cm plate, after which their movements were recorded at 20 fps using a recently developed microscopic procedure (M. Perni et al., Massively parallel C. elegans tracking provides multi-dimensional fingerprints for phenotypic discovery. J. Neurosci. Methods. 306, 57-67 (2018)) for 1 min. Up to 600 animals were counted in each experiment in duplicate unless stated otherwise. […]

Aβ42 oligomers = target: T1, Aβ42 oligomers (Homo sapiens, UniProt P05067); test: ELISA with oligomer-specific antibody; assay type: biochemical; conditions: 5 μM Aβ42; 5-fold excess; at half-time of aggregation of Aβ42 alone
T1 construct: […]; made in house; host or cells: E. coli BL21 Gold (DE3)
T1 sequence (P05067 671-713): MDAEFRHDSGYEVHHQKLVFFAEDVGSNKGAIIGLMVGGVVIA
Method: 20 μl Aliquots were taken at the t50 (i.e. half-time) from aggregation reactions of 5 μM Aβ42 in the absence and in the presence of 5-fold excess of Netoglitazone. Samples were then immobilised on a 96-well Maxisorp ELISA plate (Nunc, Roskilde, Denmark) with no shaking for 1 h at room temperature. The plate was then washed three times with 20 mM Tris pH 7.4, 100 mM NaCl and incubated in 20 mM Tris pH 7.4, 100 mM NaCl, 5% BSA under constant shaking overnight at 4° C. The day after the plate was washed six times with 20 mM Tris pH 7.4, 100 mM NaCl and then incubated with 30 μl solutions of 5 μM oligomer-specific antibody under constant shaking either for 1 hour or overnight at room temperature. At the end of this incubation, the plate was washed six times with 20 mM Tris pH 7.4, 100 mM NaCl and incubated with 30 μl solutions of Rabbit polyclonal to 6× His Tag® HRP conjugated (Abcam, Cambridge, UK) at a dilution of 1:4000 in 20 mM Tris pH 7.4, 100 mM NaCl, 5% BSA under shaking for 1 hour at room temperature. […] Finally, the amount of bound oligomer-specific antibody was quantified by using 1-Step™ Ultra TMB-ELISA Substrate Solution (ThermoFisher Scientific, Waltham, Mass., United States), according to manufacturer instructions, and measuring the absorbance at 450 nm by means of a CLARIOstar plate reader (BMG Labtech, Aylesbury, UK).

[2] = tested on: CL2331 (Aβ3-42::GFPMuscular worms); test: Automated motility assay, Aβ3-42::GFPMuscular worms; assay type: in vivo, C. elegans; conditions: compared to untreated worms
Method: CL2331; dvIs37 [myo-3p::GFP::A-Beta (3-42)+rol-6(su1006)] (Aβ3-42::GFPMuscular worms). Maintain at 16 C. Roller. Diffuse and aggregated GFP expression in body wall muscle. Low brood size. Sicker at higher temperatures. (C. D. Link et al., The β amyloid peptide can act as a modular aggregation domain. Neurobiol. Dis. 32, 420-425 (2008));
as §2, §3

Aβ42 = target: T2, Aβ42 (Homo sapiens, UniProt P05067); test: Seeded Aβ42 aggregation kinetics (2% or 50% preformed fibril seeds); assay type: biochemical; conditions: 2 μM Aβ42
T2 construct: […]; made in house; host or cells: E. coli BL21 Gold (DE3)
T2 sequence (P05067 671-713): as above
Method: For the seeded experiments, preformed fibrils were prepared just prior to the experiment. Kinetic experiments were set up as described above for 5 μM Aβ42 samples in 20 mM sodium phosphate buffer, pH 8 with 200 μM EDTA, 0.02% NaN3 and 20 μM ThT. The ThT fluorescence was monitored for 3 hours to verify the formation of fibrils. Samples were then collected from the wells into low-binding tubes. Under the considered conditions (i.e. 5 μM Aβ42), the monomer concentration is negligible at equilibrium. The final concentration of fibrils, in monomer equivalents, was considered equal to the initial concentration of monomer. Fibrils were then added to freshly prepared monomer in order to reach either 2% or 50% final concentration of seeds in the absence or the presence of Netoglitazone.
Inhibitors can interfere with the aggregation process by inhibiting one or more of the individual microscopic steps. We can identify the microscopic events that are inhibited by the chemical compounds by fitting the integrated rate law (Eq. (54) in Cohen et al., J Chem Phys 135, 065106) to the macroscopic aggregation profiles and comparing the fitted set of microscopic rate constants (k+k2 and k+kn in the absence of pre-formed seeds; k+ and k2 in the presence of pre-formed seeds where primary nucleation is bypassed) required to describe the time evolution of the fibril formation in the absence and presence of Netoglitazone. The analysis is analogous to that carried out in Habchi et al., Proc Natl Acad Sci USA; 114(2):E200-E208, 2017 to study the effects of other small molecules on Aβ42 aggregation.

## O=C1NC(=O)C(Cc2ccc3cc(OCc4ccccc4F)ccc3c2)S1 (stereo not drawn) [Netoglitazone]
GMC101 (Aβ worms)
  maximum tolerable dose: less than 50 μM
Control worms
  maximum tolerable dose: < 500 µM
[1]
  inhibition of A1340 aggregation: able to inhibit A1340 aggregation
NL5901 (α-syn worms)
  effect on mobility of α-syn worms: negligible
Aβ42 oligomers
  Aβ42 oligomer concentration (ELISA): significant reduction
[2]
  motility of Aβ3-42::GFPMuscular worms: significantly improves the motility
Aβ42; 2% seeds, 20-fold excess
  decrease of rate constant of surface-catalyzed secondary nucleation (k2): about 80%
Aβ42; 2% seeds, range of concentrations
  inhibition of secondary pathways (k2k+) with 2% preformed seeds: concentration-dependent inhibition of secondary pathways
Aβ42; 50% seeds, up to 20-fold excess
  effect on aggregation kinetics with 50% preformed seeds (elongation): did not affect the aggregation kinetics
